Several values for one entry are separate records, joined by “and”; a condition that tells them apart may be missing. Identical values can stand only once. Like-named read-outs stand apart in the source and are kept apart here.
System: L. major lysate proteins
Assay: Multitargeted bead mixture chemoproteomics, single concentration competition, proteome-wide
Type: binding

For `NCCCNc1ccc(C(=O)NC(CCC(=O)O)C(=O)O)cc1` (stereo not drawn) [compound 7], the fold change was 0.99, the “fold change relative to vehicle control” value was 1.03 and 1.04 and the “fold change vs vehicle control” value was 1.19 and 1.04 and 1.12. For the same compound, the “protein inhibition, any captured protein (Figure 8)” value (bead mixture, L. major lysate) was “no protein inhibition >30%”, the “fold change vs vehicle control” value (protein CLI00016468.1 KINETOPLASTID MEMBRANE PROTEIN-11) was 0.73 and the “fold change vs vehicle control” value (protein LINJ.03.0240 RIBOSOMAL PROTEIN L38, PUTATIVE) was 1.02. For the same compound, the “fold change vs vehicle control” value (protein LINJ.11.0780 40S RIBOSOMAL PROTEIN S21, PUTATIVE) was 1.05, the fold change (protein LINJ.11.0960 40S RIBOSOMAL PROTEIN S5, vehicle control = 1) was 0.98 and the “fold change vs vehicle control” value (protein LINJ.13.0990 […] SUBUNIT 2, PUTATIVE) was 1.26. The “fold change vs vehicle control” value (protein LINJ.15.0330 RIBONUCLEOPROTEIN P18, MITOCHONDRIAL PRECURSOR, PUTATIVE) was 0.97, the fold change (protein LINJ.19.0090 FIBRILLARIN, PUTATIVE, vehicle control = 1) was 1.04 and the “fold change relative to vehicle control” value (protein LINJ.23.0860, 3-KETOACYL-COA THIOLASE, PUTATIVE) was 1.02. The “fold change relative to vehicle control” value (protein LINJ.24.2300, 60S RIBOSOMAL PROTEIN L12, PUTATIVE) was 1.04, the “fold change vs vehicle control” value (protein LINJ.25.2230 SUCCINYL-COA SYNTHETASE ALPHA SUBUNIT, PUTATIVE) was 0.97 and the “fold change vs vehicle control” value (protein LINJ.26.1630 40S RIBOSOMAL PROTEIN S33, PUTATIVE) was 1.04. The “fold change vs vehicle control” value (protein LINJ.28.1100 RIBOSOMAL PROTEIN S20, PUTATIVE) was 1.02, the “fold change relative to vehicle control” value (protein LINJ.28.1940, REPLICATION FACTOR A, 51KDA SUBUNIT, PUTATIVE) was 1.1 and the fold change (protein LINJ.28.2280 DYNEIN LIGHT CHAIN LC6, FLAGELLAR OUTER ARM, PUTATIVE, vehicle control = 1) was 0.9. The fold change (protein LINJ.28.2870 PROTEIN PHOSPHATASE 4 CATALYTIC SUBUNIT, PUTATIVE, vehicle control = 1) was 0.91, the “fold change relative to vehicle control” value (protein LINJ.31.1600, […] OXIDASE VIII (COX VIII), PUTATIVE) was 1.19 and the “fold change relative to vehicle control” value (protein LINJ.33.1730, CYCLOPHILIN 4, PUTATIVE) was 1.08. The “fold change vs vehicle control” value (protein LINJ.34.0670 PROTEASOME REGULATORY NON-ATP-ASE SUBUNIT 11, PUTATIVE,19S PROTEASOME REGULATORY SUBUNIT) was 0.97, the “fold change vs vehicle control” value (protein LINJ.36.0780 PROTEIN KINASE, PUTATIVE,MITOGEN-ACTIVATED PROTEIN KINASE, PUTATIVE) was 1.26 and the “fold change relative to vehicle control” value (protein LINJ.36.3960, BASIC TRANSCRIPTION FACTOR 3A, PUTATIVE) was 1.58. The “fold change relative to vehicle control” value (protein LINJ.36.4080, HY[…], CONSERVED) was 1.32, the fold change (protein LINJ.36.4180 HS1VU COMPLEX PROTEOLYTIC SUBUNIT-LIKE, vehicle control = 1) was 0.93 and the “fold change vs vehicle control” value (protein LINJ.[…] LONG-CHAIN-FATTY-ACID-COA LIGASE, PUTATIVE) was 0.9. The fold change (protein LMJF.01.0570 TRIC[…], PUTATIVE, vehicle control = 1) was 0.92, the “fold change relative to vehicle control” value (protein LMJF.03.0200, DELTA-1-PYRROLINE-5-CARBOXYLATE DEHYDROGENASE, PUTATIVE) was 1.07 and the fold change (protein LMJF.03.0230 LONG CHAIN FATTY ACYL COA SYNTHETASE, PUTATIVE, vehicle control = 1) was 1. For the same compound, the fold change (protein LMJF.03.0980 […] 2 ALPHA SUBUNIT, PUTATIVE, vehicle control = 1) was 1.01, the “fold change vs vehicle control” value (protein LMJF.04.0630 HY[…], CONSERVED) was 1.07 and the “fold change vs vehicle control” value (protein LMJF.04.1230 actin) was 1.04. The fold change (protein LMJF.05.0100 PHOSPHOPROTEIN PHOSPHATASE, PUTATIVE, vehicle control = 1) was 0.91, the fold change (protein LMJF.05.0280 PROTEIN TYROSINE PHOSPHATASE, PUTATIVE, vehicle control = 1) was 0.99 and the fold change (protein LMJF.05.0510 ATPASE ALPHA SUBUNIT, vehicle control = 1) was 1.08. The fold change (protein LMJF.05.1040 STOMATIN-LIKE PROTEIN, vehicle control = 1) was 0.92, the fold change (protein LMJF.06.0650 LANOSTEROL SYNTHASE, PUTATIVE, vehicle control = 1) was 0.95 and the “fold change vs vehicle control” value (protein LMJF.07.0700 TOPOISOMERASE-RELATED FUNCTION PROTEIN-LIKE PROTEIN) was 1.1. The fold change (protein LMJF.07.1000 RNA BINDING PROTEIN-LIKE PROTEIN, vehicle control = 1) was 0.88, the “fold change relative to vehicle control” value (protein LMJF.07.1140, PEPTIDE […] REDUCTASE-LIKE) was 1.06 and the fold change (protein LMJF.08.0510 RIBOSE-PHOSPHATE PYROPHOSPHOKINASE, PUTATIVE, vehicle control = 1) was 0.91. The “fold change vs vehicle control” value (protein LMJF.08.0550 TRANSLATION INITIATION FACTOR-LIKE PROTEIN) was 0.9, the “fold change relative to vehicle control” value (protein LMJF.08.1030, cathepsin L-like protease) was 1.03 and the “fold change vs vehicle control” value (protein LMJF.08.1100 HYPOTHETICAL PROTEIN, CONSERVED) was 0.98. The “fold change vs vehicle control” value (protein LMJF.09.1010 HYPOTHETICAL PROTEIN, CONSERVED) was 0.75, the “fold change relative to vehicle control” value (protein LMJF.09.1120, MIT[…] BINDING PROTEIN 2,MRP2, GBP25) was 1.14 and the “fold change vs vehicle control” value (protein LMJF.09.1260 HYPOTHETICAL PROTEIN, CONSERVED) was 0.95. For the same compound, the fold change (protein LMJF.10.0210 NUCLEOLAR PROTEIN, PUTATIVE, vehicle control = 1) was 1.01, the “fold change vs vehicle control” value (protein LMJF.10.0310 PROTEIN TRANSPORT PROTEIN SEC23, PUTATIVE) was 1.31 and the fold change (protein LMJF.11.0590 3-[…]-COA C[…] SUBUNIT, PUTATIVE, vehicle control = 1) was 1. The “fold change relative to vehicle control” value (protein LMJF.11.0630, AMINOPEPTIDASE, PUTATIVE,METALLO-PEPTIDASE, CLAN MF, FAMILY M17) was 0.94, the “fold change vs vehicle control” value (protein LMJF.11.1050 PRETRA[…], ALPHA SUBUNIT, PUTATIVE,SEC61-LIKE (PRETRA[…]) PROTEIN, PUTATIVE) was 1.07 and the fold change (protein LMJF.11.1160 PROTEIN TRANSPORT PROTEIN SEC31, PUTATIVE, vehicle control = 1) was 1.26. For the same compound, the fold change (protein LMJF.12.0030 PROTEASOME BETA-1 SUBUNIT, PUTATIVE, vehicle control = 1) was 0.94, the “fold change vs vehicle control” value (protein LMJF.12.0210 […] […]1L8 3, PUTATIVE) was 0.95 and the “fold change relative to vehicle control” value (protein LMJF.12.0530, GLUCOSE-6-PHOSPHATE ISOMERASE) was 1.09. The fold change (protein LMJF.12.0630 ALANINE AMINOTRANSFERASE, vehicle control = 1) was 0.93, the “fold change vs vehicle control” value (protein LMJF.13.1230 40S RIBOSOMAL PROTEIN S4, PUTATIVE) was 1.05 and the “fold change vs vehicle control” value (protein LMJF.14.0310 PROTEASOME ALPHA 3 SUBUNIT, PUTATIVE) was 0.96. For the same compound, the fold change (protein LMJF.14.0660 FATTY ACID ELONGASE, PUTATIVE, vehicle control = 1) was 1.02, the fold change (protein LMJF.14.0670 FATTY ACID ELONGASE, PUTATIVE, vehicle control = 1) was 0.94 and the “fold change vs vehicle control” value (protein LMJF.14.0680 FATTY ACID ELONGASE, PUTATIVE) was 1.14. The fold change (protein LMJF.14.0990 ADP/ATP MIT[…]-LIKE PROTEIN, vehicle control = 1) was 1.25, the “fold change vs vehicle control” value (protein LMJF.14.1160 ENOLASE) was 1.02 and the fold change (protein LMJF.14.1440 HYPOTHETICAL PROTEIN, CONSERVED (cytoskeleton associated protein, putative), vehicle control = 1) was 0.82.

Reference: article PMC6199744, “Development of Chemical Proteomics for the Folateome and Analysis of the Kinetoplastid Folateome” (ACS Infectious Diseases, 2018)
